Results reported in patent publication US5877210A, “Phosphotyrosine phosphatase inhibitors or phosphotyrosine kinase activators for controlling cellular proliferation” (priority 1995, dated 1999).

Tests used:
Ramos B cells [1] = test: Confocal laser scanning microscopy; type: cell-based, human; conditions: 25 μm BMLOV, 48 h
Description: Cells were fixed with 3.7% formaldehyde in PBS and permeabilized by treatment with 0.1% saponin. […] The cells were then washed three times in staining buffer, and stained with fluorescein-labeled goat anti-rabbit antibody (Molecular Probes). After washing three times in staining buffer, cells were stained for DNA with 2 μg/ml propidium iodide. A Leica GmbH confocal laser scanning microscope (CLSM) (Leica Laser Technic, Heidelberg, Germany) equipped with a krypton/argon laser (Omnichrome, Chino, Calif.), 2 double dichroic beam splitters with λs1 /λs2 of 488/647 and 488/568 nm, 1 neutral density beam splitter (Lys Optics, Denmark), the Leica CLSM software accessories, and the Leica true color display graphics package was used to produce the confocal images.
In addition to DNA fragmentation, apoptotic lymphocytes display condensation of chromatin, loss of DNA and fragmentation of nuclei that can be detected by confocal laser scanning microscopy (CLSM) of propidium iodide stained cells (R. Sgonc & G. Wick, Int. Arch. Allergy Immunol. 105:327-332 (1994)). Therefore, CLSM was used to examine Ramos cells stained for DNA with propidium iodide and stained for phosphotyrosine (FIG. 29). In the experiments shown in FIG. 29, Ramos B cells were fixed, permeabilized and stained with propidium iodide for DNA (red) and with anti-phosphotyrosine antibodies (green) as described above. […]

[2] = tested on: calf intestinal alkaline phosphatase; test: Alkaline phosphatase inhibition; type: biochemical
Ramos B cells [3] = test: Cell cycle analysis by propidium iodide flow cytometry; type: cell-based, human
Description: Ramos B cells treated with various concentrations of BMLOV for 16 hours were examined for their DNA content by propidium iodide staining followed by FACScan flow cytometric analysis using the SFIT program.
Cells were fixed, permeabilized and stained for their DNA content with propidium iodide as previously described (D. H. Pluznik et al., "Colony Stimulating Factor (CSF) Controls Proliferation of CSF-Dependent Cells by Acting During the G1 Phase of the Cell Cycle," Proc. Natl. Acad. Sci. USA 81:7451-7455 (1984)). The stained cells were analyzed by flow cytometry on a FACScan (Becton-Dickinson) instrument. The percentage of cells in various stages of the cell cycle was calculated using the CellFIT program.
In FIG. 14, Ramos cells growing in log phase were treated with BMLOV for 48 hr at the indicated concentrations. DNA in the cells was stained with propidium iodide and quantitated by flow cytometry as described previously. The calculated percentage of cells at the stages of the cell cycle is shown. "A" marks apoptotic cells lacking normal amounts of DNA in the 5 μM dose panel.

HCT116(VP)35 = test: In vitro cytotoxicity, XTT assay
Description: (§1) The vanadate compound pV(phen) was tested for in vitro cytotoxicity in a panel of human tumor cell lines. The cell lines used were a human colon carcinoma cell line, HCT116, and two drug-resistant sublines. The HCT116(VM46) subline was selected for resistance to VM-26 and expresses the multidrug resistant (MDR) phenotype including resistance to lipophilic anticancer drugs such as paclitaxel, VP-16, VM-26, doxorubicin, and vinblastine. This cell line overexpresses P-glycoprotein, a cell surface drug efflux pump, which limits accumulation of anticancer drugs such as the ones mentioned above. […] The compound pV(phen) was also evaluated in the ovarian carcinoma cell line A2780 and a paclitaxel resistant subline A2780-Tax22.
(§2) In the cytotoxicity assays, cells were plated and 24 hr later drugs were added and serially diluted. After 72 hr of continuous drug exposure, the tetrazolium dye XTT was added. A dehydrogenase enzyme in live cells reduces the XTT to a form that absorbs light at 450 nm which can be quantitated spectrophotometrically. The greater absorbance, the greater is the number of live cells. The results are expressed as a IC50 which is a drug concentration required to inhibit cell proliferation (i.e., absorbance at 450 nm) to 50% of that of untreated control cells.

HCT116(VM)46 = test: In vitro cytotoxicity, XTT assay
Description: as §1, §2

A2780/Tax22 = test: In vitro cytotoxicity, XTT assay
Description: as §1, §2

[4] = tested on: REH, Ramos, CEM, Jurkat, HL-60, and THP-1; test: [3H]thymidine incorporation, cell line panel (FIG. 17); type: cell-based; conditions: 5 μM pV(phen), 5 days
Description: Similar results are shown in FIG. 17 for the cell lines REH, Ramos, CEM, Jurkat, HL-60, and THP-1. Cells were treated 5 days with the amount of inhibitor indicated and [^3 H]-thymidine incorporation was then measured to determine proliferation. The percent inhibition was calculated relative to untreated controls. Results are shown for three concentrations of BMLOV (5 μM, 10 μM, and 25 μM and 5 μM of pV(phen)).

[5] = tested on: i.p. M109 murine lung carcinoma; test: In vivo antitumor test, M109; conditions: for Max. % T/C: qd 1→5, ip
Description: The compound pV(phen) was tested for its antitumor activity in vivo. A summary of the antitumor test results is shown below in Table 13. In the i.p. M109 murine lung carcinoma model (Experiment No. 330; Table 13), consecutive daily i.p. injections each day from day 1 to 5 were effective in achieving an active result. […] A maximum T/C of 143%, consistent with the first result, was obtained.

Row | SMILES | nuclear morphology by CLSM (Ramos B cells [1]) | inhibition of calf intestinal alkaline phosphatase ([2]; 500 μM BMLOV) | IC50 ([2]; Table 1, p-nitrophenyl phosphate substrate) [µM] | IC50 ([2]; Table 8) [µM] | proportion of cells in G2/M (Ramos B cells [3]; 0 to 5 μM BMLOV) | proportion of cells in G1 (Ramos B cells [3]; 5 μM BMLOV, control 34%) [%] | proportion of cells in S phase (Ramos B cells [3]; 5 μM BMLOV, control 56%) [%] | effect on cell cycle distribution, in words (Ramos B cells [3]; 16 hours, 0 to 5 μM BMLOV) | IC50 (HCT116(VP)35; hct116(vp35) cells, 72 h) [µM] | fold resistance relative to parental cell line (HCT116(VP)35; vs HCT116, 4320 min) [fold] | IC50 (HCT116(VM)46; hct116(vm46) cells, 72 h) [µM] | fold resistance relative to parental cell line (HCT116(VM)46; vs HCT116, 4320 min) [fold] | IC50 (A2780/Tax22; a2780/tax22 cells, 72 h) [µM] | fold resistance relative to parental cell line (A2780/Tax22; vs A2780, 4320 min) [fold] | inhibition of proliferation, in words [4] | Max. % T/C ([5]; Expt. 330, 12 mg/kg/inj) [%] | Max. % T/C ([5]; Expt. 333, 12 mg/kg/inj (MTD reached)) [%] | cumulative MTD ([5]; last M109 experiment) [mg/kg]
1 | Cc1occc(=O)c1[O-].Cc1occc(=O)c1[O-].[O]=[V+2] [BMLOV, Bis(maltolato)oxovanadium (IV)] | extensive loss of DNA, condensation of chromatin | less than 10% | > 500 | > 500 | did not change substantially | 14 | 77 | preferentially deplete the proportion of cells in G1 while increasing the proportion in S phase |  |  |  |  |  |  |  |  |  | 
2 | [Na+].[O]=[V-]12([O][O]1)[O][O]2.c1cnc2c(c1)ccc1cccnc12 [pV(phen), sodium (1,10-phenanthroline) oxodiperoxovanadium (V)] |  |  |  |  |  |  |  |  | 7.2 | 0.9 | 2 | 0.2 | 7.5 | 0.9 | inhibits all cell types studied | 144 | 143 | 60
